How the values were obtained:
Test in all cases: relative viability (nuclei count vs DMSO), 5 days (fraction); higher = more cells survive
[1] = system: NCI-H23
Outline: (§1)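 Lung cancer cell lines were pin-tool dosed in 1536-well plates on the day after seeding, with either a lone drug or a fixed anchor-drug dose plus five library-drug doses (not always all listed) in √10 steps. Nuclei were counted on 4× images after 5 days. Relative viability is the ratio of treated-well to vehicle-well nuclei counts, with each value a median of duplicate plates.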

[2] = system: NCI-H2228
Outline: as §1

[3] = system: EMC-BAC-2
Outline: as §1

[4] = system: HCC-827
Outline: as §1

[5] = system: HCC-366
Outline: as §1

[6] = system: NCI-H2009
Outline: as §1

[7] = system: NCI-H460
Outline: as §1

[8] = system: SW 1573
Outline: as §1

[9] = system: CAL-12T
Outline: as §1

[10] = system: NCI-H1792
Outline: as §1

[11] = system: NCI-H1437
Outline: as §1

[12] = system: NCI-H1395
Outline: as §1

[13] = system: A-427
Outline: as §1

[14] = system: NCI-H1755
Outline: as §1

[15] = system: LCLC-103H
Outline: as §1

[16] = system: COR-L 105
Outline: as §1

[17] = system: HARA
Outline: as §1

[18] = system: HOP-62
Outline: as §1

[19] = system: NCI-H727
Outline: as §1

[20] = system: SK-LU-1
Outline: as §1

[21] = system: NCI-H1915
Outline: as §1

With `Nc1ccn([C@@H]2O[C@H](CO)[C@@H](O)[C@@H]2O)c(=O)n1` [Cytarabine] + C[C@]1(O)C[C@@H](c2nc(-c3ccc4ccc(-c5ccccc5)nc4c3)c3c(N)nccn32)C1 [Linsitinib] (partner 1 µM) the relative viability ([1]; first compound 0.005 µM) was 0.544, the relative viability ([1]; first compound 0.01581 µM) was 0.417 and the relative viability ([1]; first compound 0.05 µM) was 0.294. It also gave a relative viability ([1]; first compound 0.1581 µM) of 0.157, a relative viability ([1]; first compound 0.5 µM) of 0.14 and a relative viability ([2]; first compound 0.005 µM) of 0.675. The relative viability ([2]; first compound 0.01581 µM) was 0.546, the relative viability ([2]; first compound 0.05 µM) was 0.492 and the relative viability ([2]; first compound 0.1581 µM) was 0.152. It also gave a relative viability ([2]; first compound 0.5 µM) of 0.0885, a relative viability ([3]; first compound 0.005 µM) of 0.695 and a relative viability ([3]; first compound 0.01581 µM) of 0.751. It also gave a relative viability ([3]; first compound 0.05 µM) of 0.688, a relative viability ([3]; first compound 0.1581 µM) of 0.295 and a relative viability ([3]; first compound 0.5 µM) of 0.247. For the same molecule, the relative viability ([4]; first compound 0.005 µM) was 0.631, the relative viability ([4]; first compound 0.01581 µM) was 0.604 and the relative viability ([4]; first compound 0.05 µM) was 0.488. For the same molecule, the relative viability ([4]; first compound 0.1581 µM) was 0.266, the relative viability ([4]; first compound 0.5 µM) was 0.262 and the relative viability ([5]; first compound 0.005 µM) was 0.725. For the same molecule, the relative viability ([5]; first compound 0.01581 µM) was 0.393, the relative viability ([5]; first compound 0.05 µM) was 0.178 and the relative viability ([5]; first compound 0.1581 µM) was 0.0468. For the same molecule, the relative viability ([5]; first compound 0.5 µM) was 0.0253, the relative viability ([6]; first compound 0.005 µM) was 1.11 and the relative viability ([6]; first compound 0.01581 µM) was 1.12. The relative viability ([6]; first compound 0.05 µM) was 1.19, the relative viability ([6]; first compound 0.1581 µM) was 0.83 and the relative viability ([6]; first compound 0.5 µM) was 0.411. It also gave a relative viability ([7]; first compound 0.005 µM) of 0.509, a relative viability ([7]; first compound 0.01581 µM) of 0.514 and a relative viability ([7]; first compound 0.05 µM) of 0.231. For the same molecule, the relative viability ([7]; first compound 0.1581 µM) was 0.0385, the relative viability ([7]; first compound 0.5 µM) was 0.0239 and the relative viability ([8]; first compound 0.005 µM) was 0.831. It also gave a relative viability ([8]; first compound 0.01581 µM) of 0.664, a relative viability ([8]; first compound 0.05 µM) of 0.621 and a relative viability ([8]; first compound 0.1581 µM) of 0.369. It also gave a relative viability ([8]; first compound 0.5 µM) of 0.149, a relative viability ([9]; first compound 0.005 µM) of 0.72 and a relative viability ([9]; first compound 0.01581 µM) of 0.878. For the same molecule, the relative viability ([9]; first compound 0.05 µM) was 0.747, the relative viability ([9]; first compound 0.1581 µM) was 0.39 and the relative viability ([9]; first compound 0.5 µM) was 0.203. The relative viability ([10]; first compound 0.005 µM) was 0.46, the relative viability ([10]; first compound 0.01581 µM) was 0.492 and the relative viability ([10]; first compound 0.05 µM) was 0.34. For the same molecule, the relative viability ([10]; first compound 0.1581 µM) was 0.348, the relative viability ([10]; first compound 0.5 µM) was 0.283 and the relative viability ([11]; first compound 0.005 µM) was 0.746. For the same molecule, the relative viability ([11]; first compound 0.01581 µM) was 0.678, the relative viability ([11]; first compound 0.05 µM) was 0.477 and the relative viability ([11]; first compound 0.1581 µM) was 0.19. The relative viability ([11]; first compound 0.5 µM) was 0.147, the relative viability ([12]; first compound 0.005 µM) was 0.89 and the relative viability ([12]; first compound 0.01581 µM) was 0.709. For the same molecule, the relative viability ([12]; first compound 0.05 µM) was 0.784, the relative viability ([12]; first compound 0.1581 µM) was 0.466 and the relative viability ([12]; first compound 0.5 µM) was 0.38. It also gave a relative viability ([13]; first compound 0.005 µM) of 0.909, a relative viability ([13]; first compound 0.01581 µM) of 0.654 and a relative viability ([13]; first compound 0.05 µM) of 0.342. The relative viability ([13]; first compound 0.1581 µM) was 0.181, the relative viability ([13]; first compound 0.5 µM) was 0.196 and the relative viability ([14]; first compound 0.005 µM) was 0.936. It also gave a relative viability ([14]; first compound 0.01581 µM) of 0.873, a relative viability ([14]; first compound 0.05 µM) of 0.858 and a relative viability ([14]; first compound 0.1581 µM) of 0.31. For the same molecule, the relative viability ([14]; first compound 0.5 µM) was 0.271, the relative viability ([15]; first compound 0.005 µM) was 0.976 and the relative viability ([15]; first compound 0.01581 µM) was 1.22. For the same molecule, the relative viability ([15]; first compound 0.05 µM) was 1.12, the relative viability ([15]; first compound 0.1581 µM) was 1.09 and the relative viability ([15]; first compound 0.5 µM) was 1.18. For the same molecule, the relative viability ([16]; first compound 0.005 µM) was 0.815, the relative viability ([16]; first compound 0.01581 µM) was 1.1 and the relative viability ([16]; first compound 0.05 µM) was 0.628. It also gave a relative viability ([16]; first compound 0.1581 µM) of 0.443, a relative viability ([16]; first compound 0.5 µM) of 0.359 and a relative viability ([17]; first compound 0.005 µM) of 0.851. It also gave a relative viability ([17]; first compound 0.01581 µM) of 0.608, a relative viability ([17]; first compound 0.05 µM) of 0.396 and a relative viability ([17]; first compound 0.1581 µM) of 0.174. It also gave a relative viability ([17]; first compound 0.5 µM) of 0.0936, a relative viability ([18]; first compound 0.005 µM) of 0.781 and a relative viability ([18]; first compound 0.01581 µM) of 0.666. It also gave a relative viability ([18]; first compound 0.05 µM) of 0.257, a relative viability ([18]; first compound 0.1581 µM) of 0.124 and a relative viability ([18]; first compound 0.5 µM) of 0.0827. For the same molecule, the relative viability ([19]; first compound 0.005 µM) was 0.251, the relative viability ([19]; first compound 0.01581 µM) was 0.254 and the relative viability ([19]; first compound 0.05 µM) was 0.318. It also gave a relative viability ([19]; first compound 0.1581 µM) of 0.19, a relative viability ([19]; first compound 0.5 µM) of 0.215 and a relative viability ([20]; first compound 0.005 µM) of 0.954. The relative viability ([20]; first compound 0.01581 µM) was 0.918, the relative viability ([20]; first compound 0.05 µM) was 0.922 and the relative viability ([20]; first compound 0.1581 µM) was 0.476. For the same molecule, the relative viability ([20]; first compound 0.5 µM) was 0.39, the relative viability ([21]; first compound 0.005 µM) was 1.1 and the relative viability ([21]; first compound 0.01581 µM) was 0.979. The relative viability ([21]; first compound 0.05 µM) was 0.842, the relative viability ([21]; first compound 0.1581 µM) was 0.54 and the relative viability ([21]; first compound 0.5 µM) was 0.388.

From the supplement of paper PMC10307832
